Laboratory results taken from ChEMBL document CHEMBL1201862, “PubChem BioAssay data set” (2004).
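In this assay, cells in 96-well plates receive the compound at five concentrations for 48 hours. Endpoints are linearly interpolated between the surrounding concentrations. GI50 marks 50% less growth.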 Active and inactive are the calls of the source. Rule as the data show it: active = GI50 up to about 1.1 µM and inactive = higher.

Experiments:
Test in all cases: NCI-60 cell line screen, 48 h
[1] = tested on: UACC-257
[2] = tested on: MDA-MB-231
[3] = tested on: NCI-H522
[4] = tested on: SF-539
[5] = tested on: T47D
[6] = tested on: HCT-116
[7] = tested on: CCRF-CEM
[8] = tested on: SNB-19
[9] = tested on: HCC 2998
[10] = tested on: RPMI-8226
[11] = tested on: SR
[12] = tested on: MOLT-4
[13] = tested on: HOP-62
[14] = tested on: SK-MEL-28
[15] = tested on: NCI-H23
[16] = tested on: OVCAR-5
[17] = tested on: UO-31
[18] = tested on: M14
[19] = tested on: K562
[20] = tested on: DU-145
[21] = tested on: OVCAR-4
[22] = tested on: SK-MEL-2
[23] = tested on: ACHN
[24] = tested on: EKVX
[25] = tested on: A498
[26] = tested on: SW-620
[27] = tested on: MDA-MB-435
[28] = tested on: SN12C
[29] = tested on: MCF7
[30] = tested on: U-251
[31] = tested on: SF-295
[32] = tested on: PC-3
[33] = tested on: HCT-15
[34] = tested on: SF-268
[35] = tested on: LOX IMVI
[36] = tested on: TK-10
[37] = tested on: HL-60
[38] = tested on: RXF 393
[39] = tested on: BT-549
[40] = tested on: NCI-H460
[41] = tested on: OVCAR-3
[42] = tested on: Hs-578T
[43] = tested on: HOP-92
[44] = tested on: NCI-H226
[45] = tested on: HT-29
[46] = tested on: COLO 205
[47] = tested on: IGROV-1
[48] = tested on: MDA-N
[49] = tested on: SK-OV-3
[50] = tested on: KM12
[51] = tested on: UACC-62
[52] = tested on: Malme-3M
[53] = tested on: OVCAR-8
[54] = tested on: A549
[55] = tested on: SNB-75
[56] = tested on: CAKI-1
[57] = tested on: 786-0
[58] = tested on: NCI/ADR-RES
[59] = tested on: SK-MEL-5

`Cc1[nH]c(=O)[nH]c(=O)c1C(=O)N(CCO)Cc1ccccc1` was tested, and the GI50 [1] was 34.7 µM (inactive), the GI50 [2] was > 100 µM (inactive) and the GI50 [3] was > 100 µM (inactive). For the same molecule, the GI50 [4] was > 100 µM (inactive), the GI50 [5] was > 100 µM (inactive) and the GI50 [6] was > 100 µM (inactive). The GI50 [7] was > 100 µM (inactive), the GI50 [8] was > 100 µM (inactive) and the GI50 [9] was > 100 µM (inactive). The GI50 [10] was > 100 µM (inactive), the GI50 [11] was > 100 µM (inactive) and the GI50 [12] was > 100 µM (inactive). The GI50 [13] was > 100 µM (inactive), the GI50 [14] was > 100 µM (inactive) and the GI50 [15] was 33 µM (inactive). The GI50 [16] was > 100 µM (inactive), the GI50 [17] was > 100 µM (inactive) and the GI50 [18] was > 100 µM (inactive). For the same molecule, the GI50 [19] was > 100 µM (inactive), the GI50 [20] was > 100 µM (inactive) and the GI50 [21] was 29.3 µM (inactive). The GI50 [22] was > 100 µM (inactive), the GI50 [23] was > 100 µM (inactive) and the GI50 [24] was > 100 µM (inactive). The GI50 [25] was > 100 µM (inactive), the GI50 [26] was > 100 µM (inactive) and the GI50 [27] was > 100 µM (inactive). For the same molecule, the GI50 [28] was > 100 µM (inactive), the GI50 [29] was > 100 µM (inactive) and the GI50 [30] was > 100 µM (inactive). For the same molecule, the GI50 [31] was 35.5 µM (inactive), the GI50 [32] was 24.6 µM (inactive) and the GI50 [33] was over 100 µM. The GI50 [34] was > 100 µM (inactive), the GI50 [35] was > 100 µM (inactive) and the GI50 [36] was > 100 µM (inactive). For the same molecule, the GI50 [37] was > 100 µM (inactive), the GI50 [38] was 30 µM (inactive) and the GI50 [39] was > 100 µM (inactive). For the same molecule, the GI50 [40] was > 100 µM (inactive), the GI50 [41] was > 100 µM (inactive) and the GI50 [42] was 14.2 µM (inactive). For the same molecule, the GI50 [43] was 27 µM (inactive), the GI50 [44] was 17 µM (inactive) and the GI50 [45] was > 100 µM (inactive). The GI50 [46] was 22.3 µM (inactive), the GI50 [47] was 33 µM (inactive) and the GI50 [48] was > 100 µM (inactive). The GI50 [49] was > 100 µM (inactive), the GI50 [50] was > 100 µM (inactive) and the GI50 [51] was > 100 µM (inactive). For the same molecule, the GI50 [52] was > 100 µM (inactive).

With `Nc1nc(N)c2ncn(Cc3c(Cl)cccc3Cl)c2n1` the GI50 [1] was > 100 µM (inactive), the GI50 [2] was > 100 µM (inactive) and the GI50 [3] was > 100 µM (inactive). For the same molecule, the GI50 [4] was > 100 µM (inactive), the GI50 [53] was > 100 µM (inactive) and the GI50 [5] was > 100 µM (inactive). For the same molecule, the GI50 [6] was > 100 µM (inactive), the GI50 [7] was > 100 µM (inactive) and the GI50 [8] was > 100 µM (inactive). The GI50 [9] was > 100 µM (inactive), the GI50 [54] was > 100 µM (inactive) and the GI50 [10] was > 100 µM (inactive). The GI50 [12] was > 100 µM (inactive), the GI50 [13] was > 100 µM (inactive) and the GI50 [14] was > 100 µM (inactive). For the same molecule, the GI50 [15] was > 100 µM (inactive), the GI50 [16] was > 100 µM (inactive) and the GI50 [17] was > 100 µM (inactive). The GI50 [55] was 1.6 µM (inactive), the GI50 [18] was > 100 µM (inactive) and the GI50 [20] was > 100 µM (inactive). The GI50 [21] was > 100 µM (inactive), the GI50 [22] was > 100 µM (inactive) and the GI50 [23] was > 100 µM (inactive). For the same molecule, the GI50 [24] was 28.4 µM (inactive), the GI50 [25] was > 100 µM (inactive) and the GI50 [26] was > 100 µM (inactive). For the same molecule, the GI50 [56] was > 100 µM (inactive), the GI50 [27] was > 100 µM (inactive) and the GI50 [28] was > 100 µM (inactive). For the same molecule, the GI50 [29] was > 100 µM (inactive), the GI50 [30] was > 100 µM (inactive) and the GI50 [31] was > 100 µM (inactive). The GI50 [32] was > 100 µM (inactive), the GI50 [33] was over 100 µM and the GI50 [34] was > 100 µM (inactive). The GI50 [35] was > 100 µM (inactive), the GI50 [36] was > 100 µM (inactive) and the GI50 [38] was > 100 µM (inactive). For the same molecule, the GI50 [39] was > 100 µM (inactive), the GI50 [41] was > 100 µM (inactive) and the GI50 [42] was > 100 µM (inactive). For the same molecule, the GI50 [43] was > 100 µM (inactive), the GI50 [44] was > 100 µM (inactive) and the GI50 [57] was > 100 µM (inactive). For the same molecule, the GI50 [58] was 50.5 µM (inactive), the GI50 [45] was > 100 µM (inactive) and the GI50 [46] was > 100 µM (inactive). For the same molecule, the GI50 [47] was > 100 µM (inactive), the GI50 [48] was > 100 µM (inactive) and the GI50 [49] was > 100 µM (inactive). The GI50 [59] was > 100 µM (inactive), the GI50 [50] was > 100 µM (inactive) and the GI50 [51] was > 100 µM (inactive). For the same molecule, the GI50 [52] was > 100 µM (inactive).
